14 compounds from US20150189876A1, “CROP ENHANCEMENT COMPOSITIONS” (Syngenta Participations AG, priority 2012, published 2015) can be followed below.

The subject of test [1] is Heliothis virescens. Description: Egg and larval mortality on artificial diet, 24-well plate, 4 days. Format: in vivo. As for the experimental part: 2.1 Heliothis virescens (Tobacco Budworm)
Eggs (0-24 h old) were placed in a 24-well microtiter plate on artificial diet and treated with test solutions by pipetting. After an incubation period of 4 days, samples were checked for egg mortality and larval mortality.

For test [2], the system named is Tetranychus urticae. Description: Leaf disc spray test, 24-well plate, mortality after 6 days (Table 2.2). It counts as in vivo. As for the experimental part: 2.3 Tetranychus urticae (Two-Spotted Spider Mite)
Bean leaf discs were placed on agar in 24-well microtiter plates sprayed with test solutions. After drying, the leaf discs were infested with a mite population of mixed ages. After an incubation period of 6 days, samples were checked for larval mortality, and adult mortality.

Test [3] concerns Fusarium culmorum. Kind of test: In vitro antifungal checkerboard test, fungal growth by OD450 in 96-well microtiter plates. It counts as cell-based. The method, then:
(§1) In vitro antifungal activity of fungicides in combination with a compound of formula (II) was evaluated in 96 well-microtiter plate system using the checkerboard method (Vitale, R. G, Afeltra, J., and Dannaoui, E. 2005: Methods in Molecular Medicine, Vol. 118, Antifungal Agents: Methods and Protocols p. 143-152). Active ingredients were two-fold serially diluted in DMSO and mixed with double strength Potato Dextrose Broth or Alkyl Ester agar (AE medium, Miguez, M., Reeve, C., Wood, P. M. and Hollomon, D. W. (2004), Alternative oxidase reduces the sensitivity of Mycosphaerella graminicola to QOI fungicides. Pest. Manag. Sci., 60: 3-7) before filled into wells according to the checkerboard format. Each dilution well containing was inoculated with fungal spore suspension to receive a final concentration of 1×10^4 spores/ml per well. Wells of last column containing only medium and spore suspension were included as control. Three replicated microtiter plates were used in each test system. Fungal growth in each well of the micro-plates was assessed spectrophotometrically at OD450 nm (16-scan point spectrophotometer, Tecan) after inoculation [OD(0 h)=background value] and after an incubation period of 72 h [OD(72 h)] at 25° C. in the dark. Fungal growth was described as increase in OD450 nm during the time interval from 0 h to 72 h [OD(72 h)-OD(0 h)]. Fungal growth in each well of the micro-plates was assessed spectrophotometrically at OD450 nm (16-scan point spectrophotometer, Tecan) after inoculation and after an incubation period of 3-6 days at 25° C. in the dark. Fungal growth was described as increase in OD450 nm during incubation period.

The test system of test [4] is Pyrenophora teres. The description is as above. It counts as cell-based. To be noted: for Sedaxane Inhibition (%): Sedaxane alone. The method, then: as §1
Test [5] deals with Myzus persicae. Kind of test: Leaf disc spray test, 24-well plate, mortality after 6 days (Table 2.3). Format: in vivo. The method, then:
2.2 Myzus persicae (Green Peach Aphid)
Sunflower leaf discs were placed on agar in a 24-well microtiter plate and sprayed with test solutions. After drying, the leaf discs were infested with an aphid population of mixed ages. After an incubation period of 6 days, samples were checked for mortality.

Test [6] relates to Aspergillus parasiticus. Description: In vitro antifungal checkerboard test, fungal growth by OD450 in 96-well microtiter plates. Format: cell-based. The conditions noted are these: for Azoxystrobin Inhibition (%): Azoxystrobin alone. The method, then:
as §1

The subject of test [7] is Fusarium culmorum; Aspergillus parasiticus; Pyrenophora teres. Kind of test: In vitro antifungal checkerboard test, overall statement on Tables 1.1 to 1.5. Format: cell-based. The method, then: as §1
The mark [8] stands for this setting: Thiabendazole alone, read-out: Thiabendazole Inhibition (%).
The mark [9] stands for this setting: Tebuconazole alone, read-out: Tebuconazole Inhibition (%).
The mark [10] stands for this setting: Prothioconazole alone, read-out: Prothioconazole Inhibition (%).
Where [11] appears, read: Compound II alone, read-out: Compound II Inhibition (%).
Where [12] appears, read: Formula (II) 0.000003 ppm alone.

Read-outs that look alike come from different tables or passages of the source.

As to `CNC(=O)c1cc(C#N)cc(C)c1NC(=O)c1cc(Br)nn1-c1ncccc1Cl` [Cyantraniliprole, cyantraniliprole, reference compound], the entries for the “% control (average of 2 reps)” value in test [1] (Cyantraniliprole 0.8 ppm alone) and in test [2] (Cyantraniliprole 100 ppm alone) were 100% and 95%, respectively.
For `c1ccc2[nH]c(-c3cscn3)nc2c1` [Thiabendazole, thiabendazole, reference compound], in test [3] (setting [8]), the inhibition at 64 ppm was 98.3% and the inhibition at 128 ppm stood at 99.4%.
In the case of `CNC(=O)c1cc(Cl)cc(C)c1NC(=O)c1cc(Br)nn1-c1ncccc1Cl` [Chlorantraniliprole, chlorantraniliprole, reference compound], the “% control (average of 2 reps)” value is listed as 90% in test [1] (Chlorantraniliprole 0.4 ppm alone) and 95% in test [2] (Chlorantraniliprole 400 ppm alone).
Turning to `Cn1cc(C(=O)Nc2ccccc2C2CC2C2CC2)c(C(F)F)n1` (centres unmarked) [Sedaxane, sedaxane, reference compound], the “Sedaxane Inhibition (%)” value is 62.5% in test [4] (4 ppm); 81.2% in test [4] (8 ppm); 82.1% in test [4] (16 ppm); 85.9% in test [4] (32 ppm); 88.1% in test [4] (64 ppm).
Consider abamectin [reference compound], for which the “% control (average of 2 reps)” value came to 95% in test [1] (Abamectin 3 ppm alone) and 100% in test [2] (Abamectin 0.2 ppm alone).
On to `CN/C(=N\[N+](=O)[O-])NCc1cnc(Cl)s1` [Clothianidin, clothianidin, reference compound], for which the “% control (average of 2 reps)” value in test [1] (Clothianidin 50 ppm alone) and in test [5] (Clothianidin 3 ppm alone) was 100% each time.
With `CN1COCN(Cc2cnc(Cl)s2)/C1=N\[N+](=O)[O-]` [Thiamethoxam, thiamethoxam, reference compound], in test [5] (Thiamethoxam 3 ppm alone), the “% control (average of 2 reps)” value is 100%.
Turning to `CC(C)(C)C(O)(CCc1ccc(Cl)cc1)Cn1cncn1` (centres unmarked) [Tebuconazole, tebuconazole, reference compound], in test [3] (setting [9]), the inhibition at 4 ppm is 97.1% and the inhibition at 8 ppm amounted to 90.1%.
With `CO/C=C(/C(=O)OC)c1ccccc1Oc1cc(Oc2ccccc2C#N)ncn1` [Azoxystrobin, azoxystrobin, reference compound], the “Azoxystrobin Inhibition (%)” value in test [6] (8 ppm) is recorded as 82.8%; in test [6] (16 ppm), 84.5%; in test [6] (32 ppm) it was 78.5%; in test [6] (64 ppm) it was 60.8%.
Consider `CC(c1ccc(C(F)(F)F)nc1)S(C)(=O)=NC#N` (centres unmarked) [Sulfoxaflor, sulfoxaflor, reference compound], for which, in test [5] (Sulfoxaflor 0.8 ppm alone), the “% control (average of 2 reps)” value was determined as 100%.
As for `OC(Cc1ccccc1Cl)(Cn1nc[nH]c1=S)C1(Cl)CC1` (centres unmarked) [Prothioconazole, prothioconazole, reference compound], in test [3] (setting [10]), the inhibition at 64 ppm worked out at 97.3% and the inhibition at 128 ppm is 95%.
For the compound `CC1=C[C@H](O/C=C2/C(=O)NC3c4ccccc4CC23)OC1=O` (some centres unmarked) [Compound II], the inhibition at 0.125 ppm in test [6] (Aspergillus parasiticus, Compound II alone, 0.125 ppm) worked out at 8.7%; in test [3] (Compound II alone, 0.125 ppm), 6.5%. Besides, the inhibition at 0.25 ppm stood at 11.3% in test [6] (Aspergillus parasiticus, Compound II alone, 0.25 ppm); 3.2% in test [3] (Compound II alone, 0.25 ppm); 0% in test [4] (Pyrenophora teres, Compound II alone, 0.25 ppm). The inhibition at 0.5 ppm turned out to be 9.3% in test [6] (Aspergillus parasiticus, Compound II alone, 0.5 ppm); 1.2% in test [3] (Compound II alone, 0.5 ppm); 0% in test [4] (Pyrenophora teres, Compound II alone, 0.5 ppm). Further, the inhibition at 1 ppm in test [6] (Aspergillus parasiticus, Compound II alone, 1 ppm) is 9.6%; in test [3] (Compound II alone, 1 ppm), 0%; in test [4] (Pyrenophora teres, Compound II alone, 1 ppm) it was 0%. The inhibition at 2 ppm in test [6] (Aspergillus parasiticus, Compound II alone, 2 ppm) turned out to be 0.5%; in test [3] (Compound II alone, 2 ppm), 2.5%; in test [4] (Pyrenophora teres, Compound II alone, 2 ppm), 0%. Further, the inhibition at 4 ppm in test [6] (Aspergillus parasiticus, Compound II alone, 4 ppm) worked out at 5.4%; in test [3] (setting [11]), 1.3%; in test [4] (Pyrenophora teres, Compound II alone, 4 ppm) it was 0%. In addition, the inhibition at 8 ppm in test [6] (Aspergillus parasiticus, Compound II alone, 8 ppm) came to 20.5%; in test [3] (setting [11]), 0%; in test [4] (Pyrenophora teres, Compound II alone, 8 ppm), 0%. For the same compound, the inhibition at 16 ppm in test [6] (Aspergillus parasiticus, Compound II alone, 16 ppm) is 22.1%; in test [3] (Compound II alone, 16 ppm), 0%; in test [4] (Pyrenophora teres, Compound II alone, 16 ppm), 0%. Besides, the inhibition at 32 ppm amounted to 2% in test [6] (Aspergillus parasiticus, Compound II alone, 32 ppm); 0% in test [3] (Compound II alone, 32 ppm); 0% in test [4] (Pyrenophora teres, Compound II alone, 32 ppm). For the same compound, the inhibition at 64 ppm in test [6] (Aspergillus parasiticus, Compound II alone, 64 ppm) is 11.3%; in test [4] (Pyrenophora teres, Compound II alone, 64 ppm) it was 0%. Further, the inhibition at 0.0625 ppm in test [3] (Compound II alone, 0.0625 ppm) turned out to be 1.8%. In addition, the inhibition at 128 ppm in test [4] (Pyrenophora teres, Compound II alone, 128 ppm) is 3.9%. For the same compound, the “% control (average of 2 reps)” value in test [1] (setting [12]), in test [1] (Formula (II) 0.0003 ppm alone), in test [1] (Formula (II) 0.03 ppm alone), in test [1] (Formula (II) 1 ppm alone), in test [2] (setting [12]) and in test [2] (Formula (II) 0.0003 ppm alone) was 0% throughout. The “% control (average of 2 reps)” value in test [2] (Formula (II) 0.03 ppm alone), in test [2] (Formula (II) 1 ppm alone), in test [5] (setting [12]), in test [5] (Formula (II) 0.0003 ppm alone), in test [5] (Formula (II) 0.03 ppm alone) and in test [5] (Formula (II) 1 ppm alone) was 0% each time. Also, the “antagonism of the activity of the insecticides” value in test [1] (mixtures of Table 2.1), in test [2] (mixtures of Table 2.2) and in test [5] (mixtures of Table 2.3) was “did not antagonise the activity of any of the insecticides” each time. In addition, in test [7] (at some rates), the “synergistic effect on the activity of fungicides” value is listed as “provides a synergistic effect on the activity of fungicides at some rates”. Moreover, in test [7] (in general, Tables 1.1 to 1.5), the “fungicidal activity of the compound of formula (II) alone” value is reported as “did not cause any, or only very low levels of fungicidal activity”. In addition, the “antagonism of the activity of the fungicides tested” value in test [7] (in general, mixtures of Tables 1.1 to 1.5) is “did not antagonise the activity of any of the fungicides tested”.
`O=[N+]([O-])NC1=NCCN1Cc1ccc(Cl)nc1` [Imidacloprid, imidacloprid, reference compound]: the “% control (average of 2 reps)” value in test [1] (Imidacloprid 200 ppm alone) and in test [5] (Imidacloprid 1.6 ppm alone) was 100% in each case.
On to `Cc1c(F)c(F)c(COC(=O)[C@@H]2[C@H](/C=C(\Cl)C(F)(F)F)C2(C)C)c(F)c1F` (racemic) [Tefluthrin, tefluthrin, reference compound], for which the “% control (average of 2 reps)” value in test [1] (Tefluthrin 100 ppm alone) is listed as 95%; in test [2] (Tefluthrin 100 ppm alone), 90%.

The inhibition is the change of the read-out against control, counted positive when it falls.
